This note sets out measurements from ChEMBL document CHEMBL4373746, “Structural attributes influencing unbound tissue distribution” (Eur J Med Chem, 2020).

The nature of series [1]: Fraction unbound in Wistar Han rat plasma at 2 uM incubated for 6 hrs by equilibrium dialysis method. (Equilibrium dialysis compares concentrations on both sides of a semipermeable membrane.)
Series [2] can be described thus: Fraction unbound in Wistar Han rat white adipose tissue at 2 uM incubated for 6 hrs by equilibrium dialysis method.
Series [3] can be described thus: Fraction unbound in Wistar Han rat brain at 2 uM incubated for 6 hrs by equilibrium dialysis method.
Series [4] can be described thus: Fraction unbound in Wistar Han rat heart at 2 uM incubated for 6 hrs by equilibrium dialysis method.
Series [5] is described as follows: Fraction unbound in Wistar Han rat liver at 2 uM incubated for 6 hrs by equilibrium dialysis method.
Series [6] is described as follows: Fraction unbound in Wistar Han rat skeletal muscle at 2 uM incubated for 6 hrs by equilibrium dialysis method.
The nature of series [7]: Total plasma concentration in Wistar Han rat at 1 to 2 mg/kg, iv infused for 10 to 20 hrs by LC-MS/MS analysis. The conditions noted are these: in vivo.
Series [8] in a line: Drug concentration in total white adipose tissue in Wistar Han rat at 1 to 2 mg/kg, iv infused for 10 to 20 hrs by LC-MS/MS analysis. The settings on record: in vivo.
The nature of series [9]: Drug concentration in total brain in Wistar Han rat at 1 to 2 mg/kg, iv infused for 10 to 20 hrs by LC-MS/MS analysis. The settings on record: in vivo.
The nature of series [10]: Drug concentration in total heart in Wistar Han rat at 1 to 2 mg/kg, iv infused for 10 to 20 hrs by LC-MS/MS analysis. The conditions noted are these: in vivo.
A short description of series [11]: Drug concentration in total liver in Wistar Han rat at 1 to 2 mg/kg, iv infused for 10 to 20 hrs by LC-MS/MS analysis. The conditions noted are these: in vivo.
A short description of series [12]: Drug concentration in total skeletal muscle in Wistar Han rat at 1 to 2 mg/kg, iv infused for 10 to 20 hrs by LC-MS/MS analysis. The conditions noted are these: in vivo.
Series [13] is described as follows: Unbound tissue partition coefficient, ratio of drug level in heart to plasma in Wistar Han rat at 1 to 2 mg/kg, iv infused for 10 to 20 hrs by LC-MS/MS analysis.
A short description of series [14]: Unbound tissue partition coefficient, ratio of drug level in brain to plasma in Wistar Han rat at 1 to 2 mg/kg, iv infused for 10 to 20 hrs by LC-MS/MS analysis.
Series [15] is described as follows: Unbound tissue partition coefficient, ratio of drug level in adipose to plasma in Wistar Han rat at 1 to 2 mg/kg, iv infused for 10 to 20 hrs by LC-MS/MS analysis.
Series [16] can be described thus: Unbound tissue partition coefficient, ratio of drug level in liver to plasma in Wistar Han rat at 1 to 2 mg/kg, iv infused for 10 to 20 hrs by LC-MS/MS analysis.
Series [17] in a line: Unbound tissue partition coefficient, ratio of drug level in skeletal muscle to plasma in Wistar Han rat at 1 to 2 mg/kg, iv infused for 10 to 20 hrs by LC-MS/MS analysis.
The nature of series [18]: Apparent permeability of the compound across dog RRCK cells by MDCK-LE assay.
The nature of series [19]: Unbound tissue partition coefficient, ratio of drug level in brain to plasma in mouse administered as single dose. Format: ADME. The conditions noted are these: read-out: K(p,uu,brain).

Each structure is given as a SMILES string.

What is called Papp is a coefficient for how fast a substance crosses the barrier.

With `C[C@H](c1nc2cnc(N3CCC[C@@H](C(=O)N4CCCC4)C3)nc2[nH]1)n1cc(Cl)cn1`, the fraction unbound at 6 h, 2 µM amounted to 0.186 in series [1]; 0.256 in series [2]; 0.155 in [3]; 0.121 in series [4]; 0.111 in series [5]; 0.0901 in [6]. Also, the Cp in series [7] worked out at 50 ng/mL. Further, the Ct in [8] stood at 39 ng/mL; in series [9], 1.8 ng/mL; in series [10] it was 120 ng/mL; in series [11], 240 ng/mL; in [12], 56 ng/mL. The Kp uu is 1.5 in [13] (heart/plasma); 0.013 in series [14] (brain/plasma); 1.1 in series [15] (adipose/plasma); 2.8 in [16] (liver/plasma); 0.54 in series [17] (skeletal muscle/plasma). Also, in series [18], the apparent permeability (Papp) was 24 ×10⁻⁶ cm/s.
For `CC(C)C[C@H](Nc1ccc(C(=O)NCCC(=O)O)cn1)c1ccc(-c2ccc(C(F)(F)F)cn2)cc1`, the fraction unbound at 6 h, 2 µM in series [1] was 0.0141; in [2], 0.119; in series [3], 0.00795; in [4], 0.00934; in [5], 0.00684; in [6], 0.011. Also, the Cp in [7] was 45 ng/mL. Further, the Ct in [8] worked out at 0.77 ng/mL; in series [9] it was 0.95 ng/mL; in [10], 45 ng/mL; in series [11], 1000 ng/mL; in [12], 0.8 ng/mL. Moreover, the Kp uu in series [13] (heart/plasma) came out at 0.57; in series [14] (brain/plasma), 0.0042; in [15] (adipose/plasma), 0.024; in [16] (liver/plasma), 12; in [17] (skeletal muscle/plasma), 0.02. Moreover, the apparent permeability (Papp) in series [18] worked out at 0.1 ×10⁻⁶ cm/s.
On to `CO[C@@H]1C[C@H](C(=O)Nc2ccc(-n3cc(Cl)ccc3=O)cc2F)N(C(=O)Nc2ccc(Cl)cc2)C1`, for which the fraction unbound at 6 h, 2 µM was 0.0543 in series [1]; 0.177 in series [2]; 0.0391 in [3]; 0.0772 in [4]; 0.0949 in series [5]; 0.0842 in series [6]. The compound also yielded a Cp in series [7] of 120 ng/mL. For the same compound, the Ct came to 300 ng/mL in series [8]; 10 ng/mL in series [9]; 960 ng/mL in series [10]; 600 ng/mL in series [11]; 180 ng/mL in series [12]. Besides, the Kp uu worked out at 11 in series [13] (heart/plasma); 0.064 in series [14] (brain/plasma); 7.9 in series [15] (adipose/plasma); 8.6 in [16] (liver/plasma); 2.4 in series [17] (skeletal muscle/plasma). Besides, the Papp in series [18] amounted to 21 ×10⁻⁶ cm/s.
With `Cc1ccc(NC(=O)N2CCN(Cc3sc4ccccc4c3C)CC2)nc1`, the fraction unbound at 6 h, 2 µM amounted to 0.0044 in [1]; 0.00709 in series [2]; 0.0099 in series [3]; 0.00576 in series [4]; 0.0191 in series [5]; 0.0067 in series [6]. In [7], this compound registered a Cp of 92 ng/mL. Further, the Ct in [8] was 240 ng/mL; in series [9], 91 ng/mL; in series [10], 130 ng/mL; in series [11], 630 ng/mL; in series [12], 37 ng/mL. For the same compound, the Kp uu in [13] (heart/plasma) was determined as 1.9; in series [14] (brain/plasma), 2.5; in [15] (adipose/plasma), 4.8; in [16] (liver/plasma), 31; in series [17] (skeletal muscle/plasma), 0.65. Moreover, the Papp in [18] was found to be 25 ×10⁻⁶ cm/s.
Regarding `CS(=O)(=O)c1cccc(C(=O)O)c1`, the fraction unbound at 6 h, 2 µM in series [1] is 0.373; in [2], 0.516; in series [3] it was 1; in series [4], 0.422; in series [5], 0.628; in [6] it was 0.865. Moreover, the Cp in series [7] was 130 ng/mL. The Ct in series [8] came out at 0.77 ng/mL; in [9], 1 ng/mL; in series [10], 40 ng/mL; in series [11] it was 190 ng/mL; in series [12] it was 14 ng/mL. Also, the Kp uu in series [13] (heart/plasma) amounted to 0.39; in series [14] (brain/plasma), 0.02; in series [15] (adipose/plasma), 0.024; in [16] (liver/plasma), 2.4; in series [17] (skeletal muscle/plasma), 0.27. For the same compound, the apparent permeability (Papp) in series [18] turned out to be 12 ×10⁻⁶ cm/s.
Regarding `O=C(O)c1nc2cc(Cl)c(Cl)cc2nc1O` [6,7-DICHLORO-3-HYDROXY-2-QUINOXALINECARBOXYLIC ACID], the fraction unbound at 6 h, 2 µM in series [1] was found to be 0.0414; in series [2], 0.476; in series [3], 1; in series [4] it was 0.284; in series [5] it was 0.24; in [6], 0.435. This compound also gave a Cp in series [7] of 56 ng/mL. In addition, the Ct was determined as 0.77 ng/mL in [8]; 0.38 ng/mL in series [9]; 12 ng/mL in series [10]; 17 ng/mL in series [11]; 5.3 ng/mL in series [12]. Besides, the Kp uu in series [13] (heart/plasma) was 1.8; in [14] (brain/plasma) it was 0.0018; in series [15] (adipose/plasma), 0.024; in series [16] (liver/plasma), 2; in series [17] (skeletal muscle/plasma), 1.1. Further, the Papp in [18] turned out to be 1.3 ×10⁻⁶ cm/s.
Take `C[C@H](CN1CCOCC1)n1/c(=N\C(N)=O)[nH]c2cc(/C=C3\c4ccccc4COc4cc(F)ccc43)ccc21` [LY2623091]: the fraction unbound at 6 h, 2 µM in [1] is 0.00041; in [2], 0.000192; in series [3], 8.38e-05; in series [4], 0.000104; in [5], 0.000706; in [6], 5.36e-05. The compound further displayed a Cp in series [7] of 240 ng/mL. The Ct in series [8] worked out at 410 ng/mL; in [9], 31 ng/mL; in [10] it was 620 ng/mL; in series [11], 730 ng/mL; in series [12], 240 ng/mL. The Kp uu in [13] (heart/plasma) was determined as 0.68; in series [14] (brain/plasma), 0.028; in [15] (adipose/plasma) it was 0.87; in series [16] (liver/plasma), 5.6; in series [17] (skeletal muscle/plasma), 0.14. The apparent permeability (Papp) in series [18] was 0.1 ×10⁻⁶ cm/s.
As to `CCC[C@H](Oc1cc(C)c(-n2cc(C(F)(F)F)cn2)c(C)c1)c1ccc(C(=O)NCCC(=O)O)cc1` [PF-06291874], the fraction unbound at 6 h, 2 µM in [1] amounted to 0.00392; in series [2], 0.0593; in [3], 0.00714; in [4] it was 0.00722; in [5] it was 0.00845; in [6], 0.00926. The same compound gave a Cp in [7] of 410 ng/mL. Moreover, the Ct in series [8] was 18 ng/mL; in series [9], 5.8 ng/mL; in [10] it was 200 ng/mL; in series [11] it was 2400 ng/mL; in series [12], 58 ng/mL. Besides, the Kp uu stood at 0.91 in series [13] (heart/plasma); 0.026 in series [14] (brain/plasma); 0.69 in series [15] (adipose/plasma); 13 in [16] (liver/plasma); 0.33 in series [17] (skeletal muscle/plasma). Besides, in series [18], the Papp was found to be 8.5 ×10⁻⁶ cm/s.
For the compound `COc1cc2nc(N3CCN(C(=O)c4ccco4)CC3)nc(N)c2cc1OC` [PRAZOSIN], in [7], the Cp was found to be 40 ng/mL. The Ct worked out at 33 ng/mL in series [8]; 11 ng/mL in [9]; 180 ng/mL in series [10]; 640 ng/mL in [11]; 100 ng/mL in series [12]. The Kp uu in series [13] (other tissue) amounted to 2.4; in [14] (brain), 0.11; in [15] (other tissue), 1.2; in [16] (other tissue) it was 2.8; in [17] (other tissue), 0.68; in [19], 0.059. The Papp in series [18] worked out at 26 ×10⁻⁶ cm/s.
Turning to `CCCn1cnc(C[C@H](CCCN)C(=O)O)c1` [UK-396,082], the fraction unbound at 6 h, 2 µM in series [1] came out at 0.686; in [2], 0.541; in [3], 0.239; in [4], 0.237; in series [5], 0.237; in [6], 0.676. In series [7], the Cp was found to be 160 ng/mL. Besides, the Ct in [8] stood at 30 ng/mL; in series [9], 87 ng/mL; in series [10], 190 ng/mL; in series [11], 290 ng/mL; in series [12], 160 ng/mL. Also, the Kp uu amounted to 0.39 in series [13] (heart/plasma); 0.19 in series [14] (brain/plasma); 0.14 in series [15] (adipose/plasma); 0.63 in [16] (liver/plasma); 0.99 in series [17] (skeletal muscle/plasma). The Papp in series [18] came to 0.27 ×10⁻⁶ cm/s.
